Results on two compounds are retold here after ChEMBL document CHEMBL4732083, “Synthesis and anti-inflammatory activity of saponin derivatives of δ-oleanolic acid” (Eur J Med Chem, 2021).

Series [1] deals with T1, AMP-activated protein kinase, AMPK (Homo sapiens) (UniProt P54646+O43741+P54619+Q9UGJ0+Q9Y478+Q13131+Q9UGI9). The experiment in a line: Activation of AMPK in human Huh-7 cells assessed as increase in AMPK phosphorylation at Thr172 residue at 10 uM measured after 12 hrs by Western blot analysis. The format is cell-based. The note with it: filed as activator.
In series [2] the target is T1, AMP-activated protein kinase, AMPK (Homo sapiens). The experiment in a line: Activation of AMPK in human Huh-7 cells assessed as increase in AMPK phosphorylation at Thr172 residue at 10 uM measured by Western blot analysis. To be noted: filed as activator, time hrs <=12, TDE = time-dependent effect. It counts as cell-based.
Series [3] shares this target. The experiment in a line: Activation of AMPK in human HepG2 cells assessed as increase in AMPK phosphorylation at Thr172 residue at 10 uM measured by Western blot analysis. It counts as cell-based. To be noted: filed as activator, time hrs <=12, TDE = time-dependent effect.
Series [4] has the same target. The experiment in a line: Activation of AMPK in human Huh-7 cells assessed as increase in AMPK phosphorylation at Thr172 measured upto 12 hrs by Western blot analysis. It counts as cell-based. To be noted: filed as activator, dose microM <=20, time hrs <=12.
For series [5] the target is unchanged. The experiment in a line: Activation of AMPK in human HepG2 cells assessed as increase in AMPK phosphorylation measured upto 12 hrs by Western blot analysis. It counts as cell-based. The note with it: filed as activator, dose microM <=20, time hrs <=12.
Series [6] shares this target. The experiment in a line: Activation of AMPK in human Huh-7 cells assessed as increase in acetyl-CoA carboxylase phosphorylation at Ser79 residue at 10 uM measured by Western blot analysis. It counts as cell-based. To be noted: filed as activator, time hrs <=12, TDE = time-dependent effect.
Series [7] has the same target. The experiment in a line: Activation of AMPK in human HepG2 cells assessed as increase in acetyl-CoA carboxylase phosphorylation at Ser79 residue at 10 uM measured by Western blot analysis. The note with it: filed as activator, time hrs <=12, TDE = time-dependent effect. It counts as cell-based.
Series [8] has the same target. The experiment in a line: Activation of AMPK in human Huh-7 cells assessed as increase in acetyl-CoA carboxylase phosphorylation at Ser79 measured upto 12 hrs by Western blot analysis. To be noted: filed as activator, dose microM <=20, time hrs <=12. It counts as cell-based.
The target is the same in series [9]. The experiment in a line: Activation of AMPK in human HepG2 cells assessed as increase in acetyl-CoA carboxylase phosphorylation at Ser79 measured upto 12 hrs by Western blot analysis. The format is cell-based. The note with it: filed as activator, dose microM <=20, time hrs <=12.
Series [10] relates to THP-1. The experiment in a line: Cytotoxicity against human THP-1 cells assessed as reduction in cell viability at 1 to 10 uM. It counts as cell-based. To be noted: thp-1, 10 µM.
Series [11] has as its system THP-1. The experiment in a line: Antiinflammatory activity in human THP-1 cells assessed as reduction in LPS-induced TNF alpha secretion at 10 uM incubated for 12 hrs measured by ELISA. The format is functional, cell-based.
The subject of series [12] is THP-1. The experiment in a line: Antiinflammatory activity in human THP-1 cells assessed as reduction in LPS-induced IL6 secretion at 10 uM incubated for 12 hrs measured by ELISA. The format is functional, cell-based.
Series [13] is described as follows: Metabolic stability in human liver microsomes assessed as half life in presence of NADPH by LC-MS analysis. The format is ADME, Microsome.
Series [14] can be described thus: Metabolic stability in mouse liver microsomes assessed as half life in presence of NADPH by LC-MS analysis. It counts as ADME, Microsome.
Series [15] is described as follows: Tmax in BALB/c mouse at 10 mg/kg, po by LC/MS-MS analysis. The note with it: in vivo. It counts as ADME, organism-based.
A short description of series [16]: Tmax in BALB/c mouse at 2 mg/kg, iv by LC/MS-MS analysis. It counts as ADME, organism-based. The note with it: in vivo.
A short description of series [17]: Cmax in BALB/c mouse at 10 mg/kg, po by LC/MS-MS analysis. The format is ADME, organism-based. More on the design: route oral, dose 10 mg/kg. To be noted: in vivo.
The nature of series [18]: Cmax in BALB/c mouse at 2 mg/kg, iv by LC/MS-MS analysis. The format is ADME, organism-based. Details: route intravenous, dose 2 mg/kg. The note with it: in vivo.
A short description of series [19]: AUC (0 to t) in BALB/c mouse at 10 mg/kg, po by LC/MS-MS analysis. The format is ADME, organism-based. More on the design: dose 10 mg/kg. The note with it: in vivo.
Series [20] is described as follows: AUC (0 to t) in BALB/c mouse at 2 mg/kg, iv by LC/MS-MS analysis. It counts as ADME, organism-based. Details: dose 2 mg/kg. The note with it: in vivo.
Series [21] is described as follows: AUC (0 to infinity) in BALB/c mouse at 10 mg/kg, po by LC/MS-MS analysis. It counts as ADME, organism-based. More on the design: route oral, time infinity, dose 10 mg/kg. The note with it: in vivo.
A short description of series [22]: AUC (0 to infinity) in BALB/c mouse at 2 mg/kg, iv by LC/MS-MS analysis. More on the design: route intravenous, time infinity, dose 2 mg/kg. The note with it: in vivo. The format is ADME, organism-based.
A short description of series [23]: Half life in BALB/c mouse at 10 mg/kg, po by LC/MS-MS analysis. The format is ADME, organism-based. The note with it: in vivo.
Series [24] is described as follows: Half life in BALB/c mouse at 2 mg/kg, iv by LC/MS-MS analysis. The format is ADME, organism-based. To be noted: in vivo.
Series [25] in a line: Bioavailability in BALB/c mouse at 10 mg/kg, po by LC/MS-MS analysis. The format is ADME, organism-based. The note with it: in vivo.
The subject of series [26] is Mus musculus. The experiment in a line: Hepatoprotective activity in LPS/D-GalN-induced fulminant hepatic failure BALB/c mouse model assessed as inhibition of serum AST level at 200 mg/kg, IG once daily for 3 days. It counts as functional, organism-based. The note with it: time 3.0 day.
Series [27] relates to Mus musculus. The experiment in a line: Hepatoprotective activity in LPS/D-GalN-induced fulminant hepatic failure BALB/c mouse model assessed as inhibition of serum ALT level at 200 mg/kg, IG once daily for 3 days. It counts as functional, organism-based. The note with it: time 3.0 day.
The subject of series [28] is Mus musculus. The experiment in a line: Antiinflammatory activity against LPS/D-GalN-induced fulminant hepatic failure BALB/c mouse model assessed as inhibition of IL-6 mRNA expression in liver at 200 mg/kg, IG once daily for 3 days by RT-PCR analysis. The format is functional, organism-based. The note with it: time 3.0 day.
The test system of series [29] is Mus musculus. The experiment in a line: Antiinflammatory activity against LPS/D-GalN-induced fulminant hepatic failure BALB/c mouse model assessed as inhibition of TNFalpha mRNA expression in liver at 200 mg/kg, IG once daily for 3 days by RT-PCR analysis. It counts as functional, organism-based. To be noted: time 3.0 day.
The test system of series [30] is Mus musculus. The experiment in a line: Hepatoprotective activity in LPS/D-GalN-induced fulminant hepatic failure BALB/c mouse model assessed as changes in liver histology at 200 mg/kg, IG once daily for 3 days by H/E staining based analysis. The format is functional, organism-based. To be noted: time 3.0 day.
Series [31] is filed under the species Homo sapiens. The experiment in a line: Effect on recombinant AMPKalpha1beta1gamma1 (unknown origin) phosphorylation.
Series [32] is filed under the species Homo sapiens. The experiment in a line: Effect on recombinant AMPK alpha2beta2gamma1 (unknown origin) phosphorylation.

Active and inactive are the calls of the source. No cut-off for these calls is given here.

As to `CC1(C)CC[C@]2(C(=O)O)CC[C@]3(C)C(=C2C1)CC[C@@H]1[C@@]2(C)CC[C@H](O)C(C)(C)[C@@H]2CC[C@]13C`, the outcome in series [1] was Active. The Activity entry was “Tde” in [2]; “Tde” in series [3]; “Dose-dependent effect” in series [4]; “Dose-dependent effect” in [5]; “Tde” in series [6]; “Tde” in series [7]. In addition, the Activity entry in series [8] was “Dose-dependent effect”; in series [9] it was “Dose-dependent effect”; in the series on THP-1 [10], “Non-Toxic”.
For the compound `CC1(C)CC[C@]2(C(=O)O)CC[C@]3(C)C(=C2C1)CC[C@@H]1[C@@]2(C)CC[C@H](O[C@@H]4OC[C@H](O)[C@H](O)[C@H]4O)C(C)(C)[C@@H]2CC[C@]13C`, the outcome in the series with THP-1 [11], in the series with THP-1 [12], with Mus musculus [26], in the series with Mus musculus [27], in the series on Mus musculus [28] and in the series with Mus musculus [29] was Active. In addition, the result in the series with Mus musculus [30] was Active. Moreover, in the series with THP-1 [10], the Activity entry is “Non-Toxic”. In addition, the half-life in series [13] is above 120 min; in series [14] it was above 120 min; in series [23], 21 min; in series [24], 21 min. Also, the figures for the Tmax in [15] and in series [16] were 25.2 min and 4.8 min, respectively. The Cmax in series [17] is 1.84 µg/mL; in [18], 4.41 µg/mL. Moreover, the AUC(0-t) in series [19] was 1.67 µg·h/mL; in [20], 1.35 µg·h/mL. In addition, the AUC(0-inf) came out at 1.69 µg·h/mL in series [21] and 1.36 µg·h/mL in series [22]. In series [25], this compound yielded a bioavailability of 24.7%. The outcome in the series listed under Homo sapiens [31] and in the series listed under Homo sapiens [32] was inactive.
